# Measurements taken from patent US20220218659A1, “PI3K/LYN-ACLY Signaling Inhibition” (Institute For Cancer Research d/b/a The Research Institute …, priority 2019, published 2022).
# No end group written: not given here. *: point of attachment. Biotin = O=C1N[C@H]2[C@H](CS[C@H]2CCCCC(=O)*)N1
# Key:
# [1] = system: Histone H3 acetylation (H3K9ac); test: Histone H3 (H3K9) acetylation by Western blot in HL-60 cells; format: cell-based; details: 16 hours, 10% FBS in RPMI
# Method: Therefore, to evaluate the link between PI3K/Lyn and ACLY-mediated pathways in AML, HL-60 AML cell line were also used, in addition to primary patient-derived AML cells. HL-60 cell line was from American Type Culture Collection (ATCC). It was decided to use this particular HL-60 cell line for consistency herein since HL-60 cells express the active NRAS oncoprotein, similarly like the patient-derived AML cells (FIG. 7 and FIG. 8). HL-60 AML cell line was grown in RPMI 1640 medium supplemented with 10% fetal bovine serum, 2 mM 1-glutamine and 1% penicillin-streptomycin and maintained at 37° C. and 5% CO2. Cells were treated with the Lyn inhibitor (100 nM-1000 nM Bafetinib) or PI3K inhibitors (500 nM-2.5 μM LY294002 or 100 nM-2.0 μM BKM120) or vehicle (0.1% DMSO) in the presence of 10% FBS in RPMI media for 16 hours for Acetyl CoA measurement, phospholipid and histone acetylation analysis.
# HL-60 cell line was seeded at a concentration of 1×10^6/ml in 10 ml media onto 40 ml culture-flask and cultured for 16 hours in the presence of indicated concentration of LYN or PI3K inhibitors or DMSO (0.1% dimethyl sulfoxide). Cells were harvested and lysed in 1 ml of ice-cold Pierce IP lysis buffer (Pierce Inc.) in the presence of Proteinase and phosphatase inhibitor cocktail (Thermofisher) and sonicated for 20 seconds. Lysates were cleared by centrifugation at 12000 rpm in cold conditions on bench top centrifuge, and the supernatant was used for protein determination by BCA assay kit (Pierce Inc). Equivalent amounts of protein lysate were mixed with sodium dodecylsulfate (2×SDS) and boiled for 8 minutes. Samples were resolved by 4-12% gradient sodium dodecylsulfate-polyacrylamide gel electrophoresis (NOVEX; Invitrogen) and blotted onto nitrocellulose filters. Membranes were blocked for 1 hour in 0.1% Tween-20 and 5% bovine serum albumin. Primary antibodies for H3K9ac, histone H3, Lyn, ACLY and GAPDH were added to 5% BSA at concentrations provided by the vendor's instructions and incubated with membranes overnight at 4° C. before removing by washing. […]
# HL-60 AML cells = test: MTT assay, growth of HL-60 AML cells; format: cell-based; details: within 72 hours
# Method: HL-60 cells were treated with various concentrations of Bafetinib (Lyn kinase), BKM120 (PI3K) and BMS 303141 (ACLY) inhibitors in the presence of 10% RPMI media for 72 hours. The growth-inhibitory effect was examined using a […] assay (MTT; Sigma-Aldrich) as per the instructions of the manufactured kit. The experiment was performed in triplicate.
# [2] = ACLY peptide binding on PIP specificity plates; details: PIP specificity plate, 20 pmols phosphoinositide per well, peptide 1.0 μg/ml
# Method: ACLY peptides: Based on PIP2 binding motif analysis on ACLY using full length protein sequence, two PIP2 binding domains were predicted. The ACLY peptide-1 in the ATP-grasp domain sequence (peptide-1: […]; SEQ ID NO:15) and the ACLY peptide-2, in the CoA-binding domain sequence (peptide-2: […]; SEQ ID NO:5). N-terminally biotinylated peptides were synthesized (Genscript, Inc). ACLY-PIP specificity binding assay was performed using the N-terminally biotinylated peptides at 1.0 μg/ml concentration in 1% goat serum in Tris buffer saline (TB S) and the Cova PIP Specificity plate H-6300 (Echelon Biosciences) according to manufactures instructions. In brief, ACLY peptide-1 and peptide-2 at final concentration of 1.0 μg/ml in 100 μl volume were incubated for overnight at 4° C. After three washes with TBST buffer, the wells were incubated with 100 μl of HRP-conjugated Biotin antibody, followed by three washes. The bound peptides were detected with Super-Signal ELISA-Pico chemiluminescent substrate kit from ThermoFisher and reading the absorbance at 450 nm for 3-30 minutes.
# Acetyl-CoA = Acetyl-CoA measurement in HL-60 cells; format: cell-based; details: 16 hours
# Method: HL-60 cells were cultured as above, treated with Bafetinib (500 nM), PI3K inhibitors (1 μM) for 16 hours. After treatment, cells were washed with medium and harvested for acetyl-CoA extraction from 5×10^6 cells per condition in triplicate, acetyl-CoA levels were measured using Pico-Probe Acetyl-CoA Fluorometric Assay kit (BioVision, Milpitas, Calif.) following the manufacturer's instructions.
# ACLY binding to PIP2 = test: Phospho-ACLY bound to PIP2 (PIP2 immunoprecipitation and western blotting) in transfected HEK293T cells; format: cell-based, human; details: ACLY-HA with active SRC kinase, 2 μM, 15 hours
# PI/PIP/PIP2 = test: Lipidomic analysis of PI, PIP and PIP2 in HL-60 cells; format: cell-based; details: 16 hours, 10% FBS in RPMI
# Method: Phosphoinositides from HL60 cells treated with PI3K and Lyn inhibitors were compared with those from control cells (0.1% DMSO in culture medium). HL60 cells were treated with PI3K inhibitors LY294002, BKM120 or the Lyn inhibitor Bafetinib for 16 hours followed by TCA precipitation and freezing at −80° C. TCA precipitates were spiked with 20 ng of two internal standards (PIP 37:4; PIP2 37:4) and subjected to lipid extraction as described below and analyzed via LC/MS/MS. TMS-diazomethane derivatized phospholipids including phosphatidyl inositol (PI), phosphatidylinositol phosphate (PIP) and phosphatidylinositol bisphosphate (PIP2) values were measured using UPLC/MS/MS MRM Mass Spectrometry. […] Phosphatidylinositol trisphosphate (PIP3) was also measured but levels were too low in these cells to be analyzed. The endogenous PIP3 is several orders of magnitude less abundant than PIP2 in cells. It is well established that the basal PIP3 level is often undetectable in cells due to its low quantity and short halflife. […]
# UPLC/MS: Dried, methylated cell extracts were suspended in 100 μl 100% methanol (LC-MS Optima grade, Fisher) prior to chromatographic separation and MS/MS. […] The effluent was monitored by a Waters XEVO TQ-S MS/MS in multiple reaction monitoring (MRM) in positive ion mode. […]
compound,measurement,setting,value
Cc1ccc(NC(=O)c2ccc(CN3CC[C@H](N(C)C)C3)c(C(F)(F)F)c2)cc1Nc1nccc(-c2cncnc2)n1 [Bafetinib],Histone H3 acetylation blocked (densitometric analysis),[1],90%
COc1ccc(-c2ccccc2)cc1NS(=O)(=O)c1cc(Cl)cc(Cl)c1O [BMS303141],IC50,HL-60 AML cells,10 to 20 µM
ALTRKLIKKADQKGV (Biotin-ALTRKLIKKADQKGV) [ACLY peptide-2],"binding to PI(4,5)P2",[2],"binds to PI(4,5)P2"
O=c1cc(N2CCOCC2)oc2c(-c3ccccc3)cccc12 [LY294002],Histone H3 acetylation blocked (densitometric analysis),[1],60%
"Nc1cc(C(F)(F)F)c(-c2cc(N3CCOCC3)nc(N3CCOCC3)n2)cn1 [BKM120, Buparlisib]",Histone H3 acetylation blocked (densitometric analysis),[1],97%
same,synthesis of Acetyl-CoA,Acetyl-CoA,significantly prevented
same,phospho-ACLY bound to PIP2 versus DMSO,ACLY binding to PIP2,significant difference
same,levels of total PI/PIP/PIP2 compared to DMSO control,PI/PIP/PIP2,overall decrease
